Laboratory results reported in patent US20190345202A1, “ANDROGEN RECEPTOR ANTISENSE OLIGONUCLEOTIDES” (OliPass Corporation, priority 2016, published 2019).

How the values were obtained:
10-mer complementary DNA = assay: Tm of duplex between PNA and 10-mer complementary DNA (UV/Vis); assay type: binding; conditions: 4 μM PNA and 4 μM 10-mer DNA, aqueous buffer pH 7.16, 10 mM sodium phosphate, 100 mM NaCl
Experimental: The PNA derivatives in Table 1 were evaluated for their binding affinity for 10-mer DNAs complementarily targeting either the N-terminal or C-terminal. The binding affinity was assessed by Tm value for the duplex between PNA and 10-mer complementary DNA. The duplex between PNA derivatives in Table 1 and fully complementary DNAs show Tm values too high to be reliably determined in aqueous buffer solution, since the buffer solution tends to boil off during the Tm measurement.
Tm values were determined on an UV/Vis spectrometer as follows. A mixed solution of 4 μM PNA oligomer and 4 μM complementary 10-mer DNA in 4 mL aqueous buffer (pH 7.16, 10 mM sodium phosphate, 100 mM NaCl) in 15 mL polypropylene falcon tube was incubated at 90° C. for a minute and slowly cooled down to ambient temperature over several minutes. Then the solution was transferred into a 3 mL quartz UV cuvette equipped with an air-tight cap, and subjected to a Tm measurement at 260 nm on an Agilent 8453 UV/Visible spectrophotometer or a similar one as described in the prior art [PCT/KR2009/001256] or with minor modifications. The 10-mer complementary DNAs for Tm measurement were purchased from Bioneer (www.bioneer.com, Dajeon, Republic of Korea) and used without further purification.

C57BL/6 mice = assay: Hair growth in C57BL/6 mice upon topical administration (brightness score, hair weight); assay type: in vivo, mouse; conditions: for average hair weight: hair growth between Day 0 and Day 21
Experimental: (§1) [Hair Removal and Grouping] In Day 0, 7 week old female C57BL/6 mice were anesthetized with zoletil/rompun, and the hair in the back was cut and removed with a clipper and wax, respectively. Mice with flawless (i.e. spotless) hair removal were selected and randomly assigned into three groups (7 animals per group).
[Topical Administration] The topical solutions of “ASO 1” were prepared by diluting a mother stock solution of “ASO 1” to 0.2 fM or 1 fM in aqueous 30% (v/v) ethanol supplemented with 3% (v/v) glycerin. About 100 μL of 0 (negative control), 0.2, or 1 fM “ASO 1” was topically administered in the back of each animal using a cotton ball in Days 3, 7, 10, and 14.
[Digital Image Scoring for Hair Growth] For scoring the hair growth, the animals were anesthetized and photographed by group as shown in FIG. 11A using a digital camera at a fixed value of exposure time and illumination. The digital image for the area of the hair removal for each animal was selected and digitally scored for the average brightness over the selected area using “ImageJ” program. Lower brightness score is taken as faster hair growth. Brightness scores of individual animals were combined by group, and subjected to statistical analysis by student's t-test. FIG. 11B summarizes the relative brightness scores of the ASO treated groups against the control group. The relative brightness score tended to decrease with days in the treatment groups. […] Thus, “ASO 1” was concluded to promote hair growth upon topical administrations at 1 fM.
[Scoring by Hair Weight] In Day 21, the animals were anesthetized and the hair in the back was cut with a clipper. The hair samples from individual animals were combined by group, and weighed to evaluate the hair growth between Day 0 and Day 21. The average hair weight was 70.5 mg/animal for the control group, 90.8 mg/animal for the 0.2 fM treatment group, and 94.4 mg/animal for the 1 fM treatment group. Thus “ASO 1” was concluded to promote hair growth upon topical administrations at 0.2 fM as well as 1 fM.
as §1, with “(10” for “(7”
[Topical Administration] The topical solutions of “ASO 5” were prepared by diluting a mother stock solution of “ASO 5” to 1, 5, or 25 fM in aqueous 30% (v/v) ethanol supplemented with 3% (v/v) glycerin. About 100 μL of each ASO solution or vehicle (negative control) was topically administered to in the back of an animal using a cotton ball in Days 3, 7, 10, 14 and 21.
Following the shaving in Day 21, the animals received a single topical administration of either vehicle or “ASO 5” at 1 fM, 5 fM, or 25 fM. In Day 53, the hair in the back was collected by shaving with a clipper to determine the total amount of hair growth between Days 21 and 53. The average hair weights of the 1 fM, 5 fM, and 25 fM groups were 1,630%, 1,450%, and 771% of the non-treated group, respectively. Thus “ASO 5” was concluded to promote hair growth upon topical administrations at 1 to 25 fM.
as §1, with “(9” for “(7”
[Topical Administration] The topical solutions of “ASO 10” were prepared by diluting a mother stock solution of “ASO 10” to 1, 5, or 25 fM in aqueous 30% (v/v) ethanol supplemented with 3% (v/v) glycerin. About 100 μL of each ASO solution or vehicle (negative control) was topically administered to in the back of an animal using a cotton ball in Day 2.

full-length AR protein = assay: Western blot of AR protein in MCF7 cells; assay type: cell-based, human; conditions: 100 zM to 300 aM, 48 hours
Experimental: 4 culture dishes were used for 4 negative controls. 48 hours later, cells were washed 2 times with cold PBS, and then subjected to lysis with 200 μL 1× cell lysis buffer (Cat. No. 9803, Cell Signaling Tech) supplemented with 1× protease inhibitor (Cat. No. P8340, Sigma). The lysates were collected in 1.5 ml e-tube. 200 μL of each lysate was mixed with 100 μL 3× sample buffer, and boiled for 5 min at 100 ? . 20 μL of each lysate (12 lysates in total). 4 negative controls and 8 ASO treatment samples) was subjected to electrophoretic separation on a 8% SDS-PAGE gel, and transferred onto a 0.2 μm PVDF membrane. The membrane was probed with anti-AR antibody (Cat. No. 5153, Cell Signaling Tech) and anti-β-actin antibody (Cat. No. sc4778, Santa Cruz). FIG. 10A provides the AR Western blot data obtained therefrom. Multiple (negative) control samples were used to overcome technical artifacts of western blot procedures.

human AR mRNA = assay: qPCR (SYBR Green) of AR mRNA level in MCF7 cells; conditions: 5 hours
androgen receptor = assay: AR IHC of skin samples after topical administration in mice; assay type: in vivo, mouse; conditions: topical 0.2 fM or 1 fM, skin sampled Day 24
Description: [AR IHC of Skin Sample] Following the shaving in Day 21, the mice received a single topical administration of either vehicle or “ASO 1” according to the group. In Day 24, the skin of the area with hair removal was sampled for immunohistochemistry (IHC) analysis against androgen receptor. The skin samples were cryo-sectioned and subjected to immunostaining in series with a primary anti-AR antibody (Cat. No. sc-816, Santa Cruz) at 1:100 dilution, with a secondary anti-IgG (Cat No. BA-1100, Vector) at 1:200 dilution, and then with Dylight 594-steptavidin (Cat No. SA-5594, Vector, Calif., USA) at 1:200 dilution for red fluoresence tagging. The IHC images were captured on an Olympus fluorescence microscope for changes in the AR expression level upon topical treatment with “ASO 1”.
[AR Immunohistochemistry of Skin Samples] After the hair cut in Day 27, The animals topically received further either vehicle or “ASO 10” at 1, 5, or 25 fM in Days 27 and 29. Skin samples of the back were collected in Day 30 for immunohistochemical analysis against androgen receptor. The skin samples were subjected to immunostaining against androgen receptor as described in “Example 7”. IHC images were captured on a Zeiss slide scanner. FIG. 14B is a representative set of AR IHC images. […] It would be difficult to clearly state that the AR expression in hair follicles decreased in the treatment groups due to the marked increases in the number of hair follicles in the treatment groups.

| Substance | Tm Value, 10-mer DNA against C-Terminal (10-mer complementary DNA) [°C] | Tm Value, 10-mer DNA against N-Terminal (10-mer complementary DNA) [°C] | average hair weight (C57BL/6 mice; 0.2 fM topical) [mg/animal] | average hair weight (C57BL/6 mice; 1 fM topical) [mg/animal] | brightness score vs non-treated group (C57BL/6 mice; Day 13, 1 fM topical in Days 3, 7, 10, 14, lower brightness = faster hair growth) | AR band intensity vs lysates without ASO treatment (full-length AR protein) | exon message levels (exons 4-6) relative to negative control (human AR mRNA; 1 aM) | decrease of exon message levels (exons 4-6) (human AR mRNA; 100 zM) | AR expression in hair follicles (IHC) (androgen receptor) | AR expression in the muscle layer underneath the dermis (IHC) (androgen receptor) |
| --- | --- | --- | --- | --- | --- | --- | --- | --- | --- | --- |
| Fethoc-C(1O2)TT-A(6)CC-A(6)GG(6)-CA(6)A-NH2 (antisense CTTACCAGGCAA; N-Fethoc, C-terminal amide, chemistry not fully specified) [ASO 13] | 87.0 | 83.0 |  |  |  |  |  |  |  |  |
| Fethoc-GA(5)T-AC(1O2)C-A(5)GG(6)-CAA(5)-G-NH2 (antisense GATACCAGGCAAG; N-Fethoc, C-terminal amide, chemistry not fully specified) [ASO 8] | 86.0 | 87.4 |  |  |  |  |  |  |  |  |
| Fethoc-TA(5)C-CAG(6)-GC(1O2)A-A(5)GG(6)-C—NH2 (antisense TACCAGGCAAGGC; chemistry not fully specified) [ASO 9] | 84.5 | 84.3 |  |  |  |  |  |  |  |  |
| Fmoc-GA(5)A-GC(1O2)C-A(5)GG-C(1O2)AA(5)-G-NH2 (antisense GAAGCCAGGCAAG; N-Fmoc, C-terminal amide, chemistry not fully specified) [ASO 1] |  |  | 90.8 | 94.4 | significantly lower | considerably weaker | ~60 % of the negative control | more than 80% | markedly inhibited | decreased |
